Biological target: T1, Lpc53E1 (uncultured bacterium, UniProt I4AY78)
T1 construct: primer-encoded N-terminus MKSRLNDI
Assay: p-nitrophenol release at […] nm, Lineweaver-Burk
Assay type: biochemical
Conditions: pH 7, 40 °C; unit printed as mM^-1 (presumably mM); unit of the source corrected

T1 sequence (I4AY78 1-387 limits assumed): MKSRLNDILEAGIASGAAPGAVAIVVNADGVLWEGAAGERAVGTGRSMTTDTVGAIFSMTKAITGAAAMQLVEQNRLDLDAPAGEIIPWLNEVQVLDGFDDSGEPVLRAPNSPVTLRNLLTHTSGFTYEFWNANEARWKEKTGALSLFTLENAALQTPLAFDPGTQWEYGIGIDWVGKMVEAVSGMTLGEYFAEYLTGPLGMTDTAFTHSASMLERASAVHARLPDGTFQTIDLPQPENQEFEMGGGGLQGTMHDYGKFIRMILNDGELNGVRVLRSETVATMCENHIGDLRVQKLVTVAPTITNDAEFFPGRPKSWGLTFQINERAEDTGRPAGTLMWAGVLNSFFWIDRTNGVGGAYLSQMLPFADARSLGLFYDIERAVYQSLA

- KM: 1.09 mM
SMILES: CCCCCCCCCCCCCCCC(=O)Oc1ccc([N+](=O)[O-])cc1 [pNPP, p-nitrophenyl palmitate]
